Assay results taken from patent US7326685B2, “Diagnostic or therapeutic somatostatin or bombesin analog conjugates and uses thereof” (The Administrators of the Tulane Educational Fund, priority 2001, dated 2008).
Like-named read-outs stand apart in the source and are kept apart here.

Assays:
[1] = cited from earlier work
[2] = ×5 in mice; cited from earlier work
[3] = cited from earlier work; remark: listed apart in the source
[4] = 1×iv, mice; cited from earlier work
[5] = tested on: neuroblastoma IMR-32 cells; experiment: CellTiter 96 tumor cell proliferation assay; assay type: cell-based; details: conjugate compared to non-conjugated methotrexate
Method: A CellTiter 96 cell proliferation kit was used according to the described protocols (Promega Corporation, Madison, Wis.)). Culture medium (50 μl) containing various concentrations of different peptides was added respectively in each well of the 96-well kit plates followed by 50 μl of a suspension containing 5,000 cultured IMR-32 tumor cells. The plate was incubated at 37° C. for different times up to and including 7 days in a humidified, 5% CO2 atmosphere. Kit dye solution (15 μl ) was added to each well and the plate incubated the plates at 37° C. for 4 hours in a humidified, 5% CO2 atmosphere. After 4 hours, 100 μl of the solubilization/stop solution were added to each well and incubation was continued at 37° C. for 1 hour or more until complete solubilization of the formazan crystals occurred. Absorbencies of individual well solutions were then measured at 570 nm wavelength using a 96 well plate reader.

[6] = molecular target: GH release from primary cultures of rat pituitary cells (somatostatin subtype 2 rat receptor related system) (Rattus norvegicus, UniProt P30680); experiment: Inhibition of GH release from primary cultures of rat pituitary cells; assay type: cell-based; details: GH stimulated with 1 nM GRH(1-29)NH2, 3 h
Method: This is a primary system for evaluating SRIF analog potency and can be considered a somatostatin subtype 2 rat receptor related system which historically also correlates well with human subtype 2 binding.
Anterior pituitaries from adult male rats weighing 200-250 g and housed under controlled conditions (lights on from 0500-1900 h), are dispersed using aseptic techniques by a trypsin/DNase method. The dispersed cells are diluted with sterile-filtered Dulbecco's modified Eagle medium (MEM) (Gibco Laboratories, Grand Island, N.Y. (GIBCO)), which is supplemented with 2.5% fetal calf serum (GIBCO), 3% horse serum (GIBCO), 10% fresh rat serum (stored on ice for no longer than 1 h) from the pituitary donors, 1% MEM nonessential amino acids (GIBCO), gentamycin (10 ng/ml; Sigma), and nystatin (10,000 U/ml; GIBCO). The cells are counted with a hemacytometer (approximately 2,000,000 cells per pituitary) and randomly plated at a density of 200,000 cells per well (Co-star cluster 24; Rochester Scientific Co., Rochester, N.Y.). […]
In preparation for a hormone challenge, the cells are washed 3× with medium 199 (GIBCO) to remove old medium and floating cells. […] GH in plasma and media is measured by a standard double antibody RIA using components supplied by the NIDDK and the National Hormone and Pituitary Program.

[7] = rat, in vivo, ip
Method: The solution was divided into three equal parts not exceeding 2 mL and injected intraperitoneally into each rat. Urine and feces were collected on an adsorbent pad overnight. At 24 hours, the rats were killed, dissected and each of the below organs were weighed and counted in a dose calibrator.

GH release from primary cultures of rat pituitary cells (somatostatin subtype 2 rat receptor related system), sequence (P30680 whole entry): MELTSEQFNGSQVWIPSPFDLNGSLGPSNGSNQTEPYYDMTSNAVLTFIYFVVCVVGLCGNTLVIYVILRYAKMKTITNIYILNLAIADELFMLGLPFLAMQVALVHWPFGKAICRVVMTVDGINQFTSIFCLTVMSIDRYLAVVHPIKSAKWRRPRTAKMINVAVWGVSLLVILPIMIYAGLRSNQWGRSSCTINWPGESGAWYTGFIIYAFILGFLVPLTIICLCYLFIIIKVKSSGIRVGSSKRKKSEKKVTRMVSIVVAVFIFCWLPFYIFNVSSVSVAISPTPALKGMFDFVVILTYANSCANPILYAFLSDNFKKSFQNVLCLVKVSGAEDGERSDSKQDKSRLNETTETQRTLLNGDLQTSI

For `O=c1[nH]cc(F)c(=O)[nH]1` [Peptide 5-FU, 5-FU], the MTD ([1]; ×5 days) is given as 500 mg/m^2/day.

In the case of `Nc1ccn([C@@H]2O[C@H](CO)[C@@H](O)[C@@H]2O)c(=O)n1` [cytarabine], the MTD ([1]; in vivo) is given as 100 mg/m^2/day.

For `CC[C@]1(O)C[C@H]2CN(CCc3c([nH]c4ccccc34)[C@@](C(=O)OC)(c3cc4c(cc3OC)N(C=O)[C@H]3[C@@](O)(C(=O)OC)[C@H](OC(C)=O)[C@]5(CC)C=CCN6CC[C@]43[C@@H]65)C2)C1` [vincristine], the MTD ([1]; in vivo) is listed as 1.4 mg/m^2.

In the case of `O=c1[nH]c(=O)n([C@H]2C[C@H](O)[C@@H](CO)O2)cc1F` [FUDR], the MTD [2] is given as 100 mg/kg and the MTD ([3]; in human i.a.) is given as 0.6 mg/kg/day.

For `CCC1=C[C@@H]2CN(C1)Cc1c([nH]c3ccccc13)[C@@](C(=O)OC)(c1cc3c(cc1OC)N(C)[C@H]1[C@@](O)(C(=O)OC)[C@H](OC(C)=O)[C@]4(CC)C=CCN5CC[C@]31[C@@H]54)C2` [vinorelbine], the MTD ([1]; in vivo) is given as 30 mg/m^2/wk.

For `Nc1nc(F)nc2c1ncn2[C@@H]1O[C@H](COP(=O)(O)O)[C@@H](O)[C@@H]1O` [Fludarabine-P04], the MTD ([1]; ×5 days) is listed as 25 mg/m^2/day.

For `Nc1ccn([C@@H]2O[C@H](CO)[C@@H](O)C2(F)F)c(=O)n1` [gemcitabine], the MTD ([1]; in vivo) is listed as 1000 mg/m^2.

In the case of bleomycin, the MTD ([1]; in vivo) is listed as 20 mg/m^2.

In the case of `N.N.[Cl][Pt][Cl]` [Cis-Pt], the MTD ([3]; in man) is given as 100 mg/m^2.

In the case of `CC[C@@]1(O)C(=O)OCc2c1cc1n(c2=O)Cc2cc3c(CN(C)C)c(O)ccc3nc2-1` [topotecan], the LD10 [4] is listed as 75 mg/m^2 and the MTD ([3]; in humans) is listed as 1.5 mg/m^2/day.

For `NC(=O)c1ncn2c(=O)n(CCCl)nnc12` [mitozolomide], the MTD ([1]; in vivo) is listed as > 400 mg/m^2.

For `COc1cc([C@@H]2c3cc4c(cc3[C@@H](O[C@@H]3O[C@@H]5CO[C@@H](C)O[C@H]5[C@H](O)[C@H]3O)[C@H]3COC(=O)[C@H]23)OCO4)cc(OC)c1O` [etoposide], the MTD ([3]; in man) is listed as 100 mg/m^2.

In the case of `CN(Cc1cnc2nc(N)nc(N)c2n1)c1ccc(C(=O)N[C@@H](CCC(=O)O)C(=O)O)cc1` [methotrexate], the “Inhibitory effects on proliferation of IMR-32 cells (potency comparison, FIG. 1)” value [5] is listed as “equivalent potencies”, the MTD ([1]; i.v. w/o leuco) is listed as < 500 mg/m^2 and the MTD ([1]; i.v.+leuco.) is listed as 15 gm/m^2.

In the case of `N.N.O=C([O-])C1(C(=O)[O-])CCC1.[Pt+2]` [carbo-Pt], the MTD ([3]; in man) is listed as 360 mg/m^2.

For `NC(=O)NO` [Hydroxyurea], the MTD ([3]; in man) is given as 35 mg/kg/day.

For `CCCCCOC(=O)Nc1nc(=O)n([C@@H]2O[C@H](C)[C@@H](O)[C@H]2O)cc1F` [capecitabine], the MTD ([1]; orally) is given as 2.5 g/m^2.

In the case of `CCc1c2c(nc3ccc(OC(=O)N4CCC(N5CCCCC5)CC4)cc13)-c1cc3c(c(=O)n1C2)COC(=O)[C@]3(O)CC` [irinotecan], the MTD ([1]; 1×/wk depending on patient response) is listed as 50-150 mg/m^2.

For “D-Ser-D-Ser-D-Ser-D-Ser-D-Ser-L-Lys-D-Tyr-D-Ser-cyclo[L-Cys-L-Phe-D-Trp-L-Lys-L-Thr-L-Cys]-L-Thr-NH2 [JF-08-53]”, the IC50 [6] was 0.086 nM and the “Elimination of labeled peptide in urine and feces (FIG. 2)” value [7] was “rapid and high efficiency elimination”.

In the case of `O=C1c2c(O)ccc(O)c2C(=O)c2c(NCCNCCO)ccc(NCCNCCO)c21` [mitoxantrone], the MTD ([1]; in vivo) is listed as 12-14 mg/m^2.

In the case of `CC(=O)O[C@@]12CO[C@@H]1C[C@H](O)[C@@]1(C)C(=O)[C@H](O)C3=C(C)[C@@H](OC(=O)[C@H](O)[C@@H](NC(=O)OC(C)(C)C)c4ccccc4)C[C@@](O)([C@@H](OC(=O)c4ccccc4)[C@H]21)C3(C)C` [Docetaxel], the MTD ([1]; in vivo) is listed as 60-100 mg/m^2.
